{"source": "paper PMC4685510", "about": "“A Cell Biologist’s Field Guide to Aurora Kinase Inhibitors” (Frontiers in Oncology, 2015)", "assay_in_all_cases": "biochemical", "assay_type_in_all_cases": "biochemical", "key": {"[1]": {"target": "363 human kinases (including Aurora A/B/C) (Homo sapiens, UniProt Q9P1W9)", "sequence (Q9P1W9 whole entry)": "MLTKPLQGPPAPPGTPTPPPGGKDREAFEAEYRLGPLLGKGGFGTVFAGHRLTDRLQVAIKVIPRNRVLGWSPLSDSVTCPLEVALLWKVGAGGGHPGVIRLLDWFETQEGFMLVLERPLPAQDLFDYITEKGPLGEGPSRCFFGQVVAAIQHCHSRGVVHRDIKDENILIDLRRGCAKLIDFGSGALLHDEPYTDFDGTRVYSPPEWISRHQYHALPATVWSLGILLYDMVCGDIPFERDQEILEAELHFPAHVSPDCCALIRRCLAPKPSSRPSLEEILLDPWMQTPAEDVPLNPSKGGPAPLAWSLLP", "settings": "PIM2; for remaining activity at 0.1 µM: 100 nM; for remaining activity at 0.1 µM / remaining activity at 0.5 µM: read-out: % Enzyme Activity (relative to DMSO controls)", "source_text": "(§1) However, the Aurora A/B selectivity ratios derived from our in vitro and in vivo data can be compared to prioritize inhibitors."}, "[2]": {"target": "363 human kinases (including Aurora A/B/C) (Homo sapiens, UniProt Q04912)", "sequence (Q04912 25-1400)": "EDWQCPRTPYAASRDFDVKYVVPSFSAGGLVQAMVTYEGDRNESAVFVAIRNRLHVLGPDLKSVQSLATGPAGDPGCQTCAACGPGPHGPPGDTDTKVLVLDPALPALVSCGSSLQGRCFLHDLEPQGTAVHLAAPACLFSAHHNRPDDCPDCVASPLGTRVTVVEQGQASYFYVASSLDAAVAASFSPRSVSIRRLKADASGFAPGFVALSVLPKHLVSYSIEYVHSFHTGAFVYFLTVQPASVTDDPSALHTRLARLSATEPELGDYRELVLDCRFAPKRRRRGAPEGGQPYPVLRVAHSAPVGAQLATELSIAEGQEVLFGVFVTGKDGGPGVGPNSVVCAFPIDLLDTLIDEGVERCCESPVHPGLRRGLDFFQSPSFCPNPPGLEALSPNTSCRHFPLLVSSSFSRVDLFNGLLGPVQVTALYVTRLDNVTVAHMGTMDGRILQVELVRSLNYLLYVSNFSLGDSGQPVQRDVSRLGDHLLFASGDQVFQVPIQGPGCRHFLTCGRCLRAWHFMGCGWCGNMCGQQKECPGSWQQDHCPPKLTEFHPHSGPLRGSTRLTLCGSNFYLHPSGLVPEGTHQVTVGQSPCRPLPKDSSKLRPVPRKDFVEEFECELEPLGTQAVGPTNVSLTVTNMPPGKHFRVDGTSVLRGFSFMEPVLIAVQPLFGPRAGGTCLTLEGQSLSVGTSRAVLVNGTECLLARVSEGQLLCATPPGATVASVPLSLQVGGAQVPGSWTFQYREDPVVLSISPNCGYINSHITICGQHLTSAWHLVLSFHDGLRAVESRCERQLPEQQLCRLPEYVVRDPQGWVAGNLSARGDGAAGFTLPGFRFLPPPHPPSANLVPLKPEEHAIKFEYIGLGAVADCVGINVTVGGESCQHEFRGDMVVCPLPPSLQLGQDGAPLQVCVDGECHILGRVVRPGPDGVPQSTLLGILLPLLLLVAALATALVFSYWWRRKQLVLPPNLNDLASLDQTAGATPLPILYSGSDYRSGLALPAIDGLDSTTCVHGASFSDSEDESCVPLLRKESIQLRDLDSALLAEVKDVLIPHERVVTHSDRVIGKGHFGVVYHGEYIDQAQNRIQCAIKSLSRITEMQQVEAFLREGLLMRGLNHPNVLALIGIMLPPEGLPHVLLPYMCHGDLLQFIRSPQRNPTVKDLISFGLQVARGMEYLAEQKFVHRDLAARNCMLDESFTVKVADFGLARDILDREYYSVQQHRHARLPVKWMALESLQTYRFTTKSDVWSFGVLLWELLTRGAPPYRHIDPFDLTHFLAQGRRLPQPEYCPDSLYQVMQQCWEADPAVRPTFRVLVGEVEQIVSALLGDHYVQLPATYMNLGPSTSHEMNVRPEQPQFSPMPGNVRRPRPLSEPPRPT", "settings": "RON/MST1R; for remaining activity at 0.1 µM: 100 nM; for remaining activity at 0.1 µM / remaining activity at 0.5 µM: read-out: % Enzyme Activity (relative to DMSO controls)", "source_text": "as §1"}, "[3]": {"target": "363 human kinases (including Aurora A/B/C) (Homo sapiens, UniProt P30291)", "settings": "WEE1; for remaining activity at 0.1 µM: 100 nM; for remaining activity at 0.1 µM / remaining activity at 0.5 µM: read-out: % Enzyme Activity (relative to DMSO controls)", "source_text": "as §1"}, "[4]": {"target": "363 human kinases (including Aurora A/B/C) (Homo sapiens, UniProt P31749)", "sequence (P31749 whole entry)": "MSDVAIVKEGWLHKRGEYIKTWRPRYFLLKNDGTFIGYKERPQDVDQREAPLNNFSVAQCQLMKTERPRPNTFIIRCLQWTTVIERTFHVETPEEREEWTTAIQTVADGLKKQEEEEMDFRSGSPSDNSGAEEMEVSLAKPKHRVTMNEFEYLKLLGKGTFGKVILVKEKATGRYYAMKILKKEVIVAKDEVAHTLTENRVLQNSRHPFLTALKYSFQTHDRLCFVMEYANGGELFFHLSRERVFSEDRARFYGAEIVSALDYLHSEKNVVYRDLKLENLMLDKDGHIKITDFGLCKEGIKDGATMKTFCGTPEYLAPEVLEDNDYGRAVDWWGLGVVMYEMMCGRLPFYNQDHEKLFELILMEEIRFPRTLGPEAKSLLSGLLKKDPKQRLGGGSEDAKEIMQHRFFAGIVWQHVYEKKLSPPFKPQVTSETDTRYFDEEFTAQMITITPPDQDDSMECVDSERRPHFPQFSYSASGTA", "settings": "AKT1, [ATP] 100 µM; for remaining activity at 0.1 µM: 100 nM; for remaining activity at 0.1 µM / remaining activity at 0.5 µM: read-out: % Enzyme Activity (relative to DMSO controls)", "source_text": "as §1"}, "[5]": {"target": "363 human kinases (including Aurora A/B/C) (Homo sapiens, UniProt P08922)", "sequence (P08922 28-2347)": "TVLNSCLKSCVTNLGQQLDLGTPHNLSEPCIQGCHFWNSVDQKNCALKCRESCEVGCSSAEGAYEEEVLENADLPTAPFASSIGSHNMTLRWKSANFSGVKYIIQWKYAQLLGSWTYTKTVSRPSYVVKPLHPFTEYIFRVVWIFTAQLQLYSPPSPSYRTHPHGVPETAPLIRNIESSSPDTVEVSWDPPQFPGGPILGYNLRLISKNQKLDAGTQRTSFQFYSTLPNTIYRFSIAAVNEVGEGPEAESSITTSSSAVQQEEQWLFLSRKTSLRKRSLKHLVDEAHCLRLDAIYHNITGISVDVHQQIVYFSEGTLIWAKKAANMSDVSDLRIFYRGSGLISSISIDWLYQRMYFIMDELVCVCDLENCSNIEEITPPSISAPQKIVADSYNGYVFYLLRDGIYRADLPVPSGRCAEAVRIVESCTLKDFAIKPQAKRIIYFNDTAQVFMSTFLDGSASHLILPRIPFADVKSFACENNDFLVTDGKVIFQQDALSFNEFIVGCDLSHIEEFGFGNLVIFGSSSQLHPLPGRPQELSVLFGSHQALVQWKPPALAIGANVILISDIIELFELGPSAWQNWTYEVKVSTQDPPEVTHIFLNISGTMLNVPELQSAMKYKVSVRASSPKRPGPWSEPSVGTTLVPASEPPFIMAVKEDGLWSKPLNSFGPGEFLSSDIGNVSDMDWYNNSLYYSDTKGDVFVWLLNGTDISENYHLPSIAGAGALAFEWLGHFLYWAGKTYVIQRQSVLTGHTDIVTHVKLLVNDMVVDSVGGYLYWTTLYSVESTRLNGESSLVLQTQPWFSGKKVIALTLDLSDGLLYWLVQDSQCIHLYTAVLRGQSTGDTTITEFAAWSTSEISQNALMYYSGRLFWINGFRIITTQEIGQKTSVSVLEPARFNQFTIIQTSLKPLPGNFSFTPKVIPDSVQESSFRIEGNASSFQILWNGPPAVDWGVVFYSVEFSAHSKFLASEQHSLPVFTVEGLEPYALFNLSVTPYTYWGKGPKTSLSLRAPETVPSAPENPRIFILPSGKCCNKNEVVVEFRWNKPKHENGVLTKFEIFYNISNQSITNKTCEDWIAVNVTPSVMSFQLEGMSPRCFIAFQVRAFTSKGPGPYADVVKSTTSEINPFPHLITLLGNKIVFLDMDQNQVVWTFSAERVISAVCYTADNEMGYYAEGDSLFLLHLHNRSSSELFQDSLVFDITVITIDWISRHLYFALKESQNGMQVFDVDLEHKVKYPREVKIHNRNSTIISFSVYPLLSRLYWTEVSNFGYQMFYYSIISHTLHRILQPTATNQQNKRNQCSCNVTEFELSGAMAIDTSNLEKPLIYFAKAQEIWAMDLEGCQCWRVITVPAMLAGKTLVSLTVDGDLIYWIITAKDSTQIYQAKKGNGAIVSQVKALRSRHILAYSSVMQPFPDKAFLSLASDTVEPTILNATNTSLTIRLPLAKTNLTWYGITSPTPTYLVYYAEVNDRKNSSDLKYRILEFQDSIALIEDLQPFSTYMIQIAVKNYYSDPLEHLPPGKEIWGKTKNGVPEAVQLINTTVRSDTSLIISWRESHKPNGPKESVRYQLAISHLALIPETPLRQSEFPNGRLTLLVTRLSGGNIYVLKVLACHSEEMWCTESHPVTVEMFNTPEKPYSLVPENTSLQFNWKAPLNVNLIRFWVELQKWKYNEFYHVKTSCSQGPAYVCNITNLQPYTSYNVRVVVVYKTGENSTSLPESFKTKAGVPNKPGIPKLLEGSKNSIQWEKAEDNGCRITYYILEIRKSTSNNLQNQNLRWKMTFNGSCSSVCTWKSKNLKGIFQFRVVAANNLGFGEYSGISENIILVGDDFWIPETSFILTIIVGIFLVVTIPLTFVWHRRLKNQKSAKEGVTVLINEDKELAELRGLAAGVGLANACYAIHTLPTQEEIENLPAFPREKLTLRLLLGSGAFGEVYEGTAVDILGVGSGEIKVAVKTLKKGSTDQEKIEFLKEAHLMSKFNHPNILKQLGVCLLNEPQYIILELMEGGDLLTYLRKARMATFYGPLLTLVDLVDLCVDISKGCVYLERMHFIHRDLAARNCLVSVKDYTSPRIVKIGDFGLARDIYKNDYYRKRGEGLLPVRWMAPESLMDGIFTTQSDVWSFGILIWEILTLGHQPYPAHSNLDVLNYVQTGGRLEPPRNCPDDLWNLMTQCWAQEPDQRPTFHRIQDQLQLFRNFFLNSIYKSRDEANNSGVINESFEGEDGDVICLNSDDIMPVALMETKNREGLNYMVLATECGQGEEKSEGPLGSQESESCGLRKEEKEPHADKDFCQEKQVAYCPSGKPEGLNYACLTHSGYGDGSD", "settings": "ROS/ROS1; for remaining activity at 0.1 µM: 100 nM; for remaining activity at 0.1 µM / remaining activity at 0.5 µM: read-out: % Enzyme Activity (relative to DMSO controls)", "source_text": "as §1"}, "[6]": {"target": "T1, 363 human kinases (including Aurora A/B/C) (Homo sapiens, UniProt Q9BXA7)", "T1 sequence (Q9BXA7 1-367)": "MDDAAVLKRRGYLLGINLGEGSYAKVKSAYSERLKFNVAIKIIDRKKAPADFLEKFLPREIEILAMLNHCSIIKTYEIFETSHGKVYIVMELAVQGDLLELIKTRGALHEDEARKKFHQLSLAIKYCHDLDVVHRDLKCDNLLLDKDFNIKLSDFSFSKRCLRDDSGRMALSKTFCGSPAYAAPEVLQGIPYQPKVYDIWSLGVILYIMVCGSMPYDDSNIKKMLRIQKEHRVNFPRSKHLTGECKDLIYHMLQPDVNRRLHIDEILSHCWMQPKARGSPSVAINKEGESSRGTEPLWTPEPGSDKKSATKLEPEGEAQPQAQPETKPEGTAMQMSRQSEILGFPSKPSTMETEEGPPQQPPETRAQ", "settings": "STK22D/TSSK1; for remaining activity at 0.1 µM: 100 nM; for remaining activity at 0.1 µM / remaining activity at 0.5 µM: read-out: % Enzyme Activity (relative to DMSO controls)", "source_text": "as §1"}, "[7]": {"target": "363 human kinases (including Aurora A/B/C) (Homo sapiens, UniProt O75116)", "settings": "ROCK2; for remaining activity at 0.1 µM: 100 nM; for remaining activity at 0.1 µM / remaining activity at 0.5 µM: read-out: % Enzyme Activity (relative to DMSO controls)", "source_text": "as §1"}, "[8]": {"target": "363 human kinases (including Aurora A/B/C) (Homo sapiens, UniProt O00311)", "sequence (O00311 whole entry)": "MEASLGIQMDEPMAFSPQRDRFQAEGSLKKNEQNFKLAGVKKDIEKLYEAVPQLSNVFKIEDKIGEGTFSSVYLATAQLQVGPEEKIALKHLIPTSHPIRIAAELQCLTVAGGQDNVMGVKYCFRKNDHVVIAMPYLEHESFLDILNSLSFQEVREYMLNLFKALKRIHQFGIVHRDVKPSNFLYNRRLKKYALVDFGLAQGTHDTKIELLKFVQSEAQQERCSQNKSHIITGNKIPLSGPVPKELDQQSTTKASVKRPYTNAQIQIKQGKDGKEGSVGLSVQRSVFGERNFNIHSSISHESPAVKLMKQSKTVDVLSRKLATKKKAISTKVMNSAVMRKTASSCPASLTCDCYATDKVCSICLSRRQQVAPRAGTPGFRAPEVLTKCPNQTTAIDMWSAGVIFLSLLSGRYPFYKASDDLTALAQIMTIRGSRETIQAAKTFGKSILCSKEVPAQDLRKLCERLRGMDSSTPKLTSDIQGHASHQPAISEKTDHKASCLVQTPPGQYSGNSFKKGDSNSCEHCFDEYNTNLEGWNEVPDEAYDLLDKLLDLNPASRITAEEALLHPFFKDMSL", "settings": "CDC7/DBF4, [ATP] 15 µM; for remaining activity at 0.1 µM: 100 nM; for remaining activity at 0.1 µM / remaining activity at 0.5 µM: read-out: % Enzyme Activity (relative to DMSO controls)", "source_text": "as §1"}, "[9]": {"target": "T2, 363 human kinases (including Aurora A/B/C) (Homo sapiens, UniProt Q96PY6)", "T2 sequence (Q96PY6 1-1258)": "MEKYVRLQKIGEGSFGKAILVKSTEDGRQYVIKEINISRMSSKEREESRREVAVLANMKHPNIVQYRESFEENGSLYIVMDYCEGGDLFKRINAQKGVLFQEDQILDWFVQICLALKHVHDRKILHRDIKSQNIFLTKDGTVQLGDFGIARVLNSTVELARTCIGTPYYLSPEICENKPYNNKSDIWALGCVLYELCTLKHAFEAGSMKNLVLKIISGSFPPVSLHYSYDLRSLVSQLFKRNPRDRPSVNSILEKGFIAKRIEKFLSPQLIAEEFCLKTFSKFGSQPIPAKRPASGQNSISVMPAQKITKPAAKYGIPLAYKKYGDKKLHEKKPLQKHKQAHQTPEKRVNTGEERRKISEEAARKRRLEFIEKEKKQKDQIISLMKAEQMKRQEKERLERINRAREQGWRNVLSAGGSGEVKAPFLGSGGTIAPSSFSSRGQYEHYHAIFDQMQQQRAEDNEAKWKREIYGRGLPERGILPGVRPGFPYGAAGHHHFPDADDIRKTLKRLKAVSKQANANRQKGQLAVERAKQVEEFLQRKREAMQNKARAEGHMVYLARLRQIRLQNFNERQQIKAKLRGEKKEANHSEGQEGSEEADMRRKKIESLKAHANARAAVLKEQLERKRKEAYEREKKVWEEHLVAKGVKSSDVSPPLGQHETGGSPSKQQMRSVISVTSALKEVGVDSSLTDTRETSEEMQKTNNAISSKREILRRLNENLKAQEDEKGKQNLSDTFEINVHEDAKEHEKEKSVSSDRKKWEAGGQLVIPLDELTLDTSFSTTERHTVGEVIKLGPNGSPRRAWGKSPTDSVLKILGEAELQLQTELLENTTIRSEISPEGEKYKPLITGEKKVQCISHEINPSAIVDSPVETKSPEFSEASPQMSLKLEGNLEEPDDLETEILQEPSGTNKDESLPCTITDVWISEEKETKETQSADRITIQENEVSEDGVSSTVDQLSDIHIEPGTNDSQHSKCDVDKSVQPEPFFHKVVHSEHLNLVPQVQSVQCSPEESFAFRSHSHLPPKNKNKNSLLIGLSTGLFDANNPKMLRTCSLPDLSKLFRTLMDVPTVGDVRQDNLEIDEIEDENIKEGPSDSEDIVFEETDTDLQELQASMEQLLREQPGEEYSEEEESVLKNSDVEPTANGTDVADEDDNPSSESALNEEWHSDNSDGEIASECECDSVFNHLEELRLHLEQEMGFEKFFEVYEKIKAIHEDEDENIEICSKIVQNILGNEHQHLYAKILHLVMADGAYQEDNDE", "settings": "NEK1; for remaining activity at 0.1 µM: 100 nM; for remaining activity at 0.1 µM / remaining activity at 0.5 µM: read-out: % Enzyme Activity (relative to DMSO controls)", "source_text": "as §1"}}}
{"molecule": "CCn1cc(-c2ccnc3[nH]c(-c4cccc(CN(C)C)c4)cc23)c(-c2ccc(NC(=O)N(C)C)cc2)n1", "note": "[GSK1070916]", "values": [{"measurement": "remaining activity at 0.1 µM", "setting": "[1]", "result": 87.2, "unit": "%"}, {"measurement": "remaining activity at 0.1 µM", "setting": "[2]", "result": 93.8, "unit": "%"}, {"measurement": "remaining activity at 0.1 µM", "setting": "[3]", "result": 97, "unit": "%"}, {"measurement": "remaining activity at 0.1 µM", "setting": "[4]", "result": 105, "unit": "%"}, {"measurement": "remaining activity at 0.1 µM", "setting": "[5]", "result": 102, "unit": "%"}, {"measurement": "remaining activity at 0.1 µM", "setting": "[6]", "result": 90.1, "unit": "%"}, {"measurement": "remaining activity at 0.1 µM", "setting": "[7]", "result": 71.8, "unit": "%"}, {"measurement": "remaining activity at 0.1 µM", "setting": "[8]", "result": 95.4, "unit": "%"}, {"measurement": "remaining activity at 0.1 µM", "setting": "[9]", "result": 101, "unit": "%"}]}
{"molecule": "O=C(O)[C@]1(Cc2cccc(Nc3nccs3)n2)CC[C@@H](Oc2cccc(Cl)c2F)CC1", "note": "[MK-5108]", "values": [{"measurement": "remaining activity at 0.1 µM", "setting": "[1]", "result": 104, "unit": "%"}, {"measurement": "remaining activity at 0.5 µM", "setting": "[1]; 500 nM", "result": 88.5, "unit": "%"}, {"measurement": "remaining activity at 0.1 µM", "setting": "[2]", "result": 101, "unit": "%"}, {"measurement": "remaining activity at 0.5 µM", "setting": "[2]; 500 nM", "result": 94.1, "unit": "%"}, {"measurement": "remaining activity at 0.1 µM", "setting": "[3]", "result": 106, "unit": "%"}, {"measurement": "remaining activity at 0.5 µM", "setting": "[3]; 500 nM", "result": 93.4, "unit": "%"}, {"measurement": "remaining activity at 0.1 µM", "setting": "[4]", "result": 116, "unit": "%"}, {"measurement": "remaining activity at 0.5 µM", "setting": "[4]; 500 nM", "result": 102, "unit": "%"}, {"measurement": "remaining activity at 0.1 µM", "setting": "[5]", "result": 0.98, "unit": "%"}, {"measurement": "remaining activity at 0.5 µM", "setting": "[5]; 500 nM", "result": 1.15, "unit": "%"}, {"measurement": "remaining activity at 0.1 µM", "setting": "[6]", "result": 106, "unit": "%"}, {"measurement": "remaining activity at 0.5 µM", "setting": "[6]; 500 nM", "result": 94.4, "unit": "%"}, {"measurement": "remaining activity at 0.1 µM", "setting": "[7]", "result": 99.6, "unit": "%"}, {"measurement": "remaining activity at 0.5 µM", "setting": "[7]; 500 nM", "result": 98.2, "unit": "%"}, {"measurement": "remaining activity at 0.1 µM", "setting": "[8]", "result": 103, "unit": "%"}, {"measurement": "remaining activity at 0.5 µM", "setting": "[8]; 500 nM", "result": 96.2, "unit": "%"}, {"measurement": "remaining activity at 0.1 µM", "setting": "[9]", "result": 101, "unit": "%"}, {"measurement": "remaining activity at 0.5 µM", "setting": "[9]; 500 nM", "result": 103, "unit": "%"}]}
{"molecule": "O=C(c1cccc(Cl)c1F)N1CCN(Cc2cccc(Nc3nccs3)n2)CC1", "note": "[MK-8745]", "values": [{"measurement": "% Enzyme Activity (relative to DMSO controls)", "setting": "[1]; 500 nM", "result": 93.64, "unit": "%"}, {"measurement": "remaining activity at 0.5 µM", "setting": "[1]; 500 nM", "result": 93.8, "unit": "%"}, {"measurement": "% Enzyme Activity (relative to DMSO controls)", "setting": "[2]; 500 nM", "result": 94.45, "unit": "%"}, {"measurement": "remaining activity at 0.5 µM", "setting": "[2]; 500 nM", "result": 96.3, "unit": "%"}, {"measurement": "% Enzyme Activity (relative to DMSO controls)", "setting": "[3]; 500 nM", "result": 99.94, "unit": "%"}, {"measurement": "remaining activity at 0.5 µM", "setting": "[3]; 500 nM", "result": 105, "unit": "%"}, {"measurement": "% Enzyme Activity (relative to DMSO controls)", "setting": "[4]; 500 nM", "result": 95.86, "unit": "%"}, {"measurement": "remaining activity at 0.5 µM", "setting": "[4]; 500 nM", "result": 97.4, "unit": "%"}, {"measurement": "% Enzyme Activity (relative to DMSO controls)", "setting": "[5]; 500 nM", "result": 3.19, "unit": "%"}, {"measurement": "remaining activity at 0.5 µM", "setting": "[5]; 500 nM", "result": 3.49, "unit": "%"}, {"measurement": "% Enzyme Activity (relative to DMSO controls)", "setting": "[6]; 500 nM", "result": 93.43, "unit": "%"}, {"measurement": "remaining activity at 0.5 µM", "setting": "[6]; 500 nM", "result": 93.6, "unit": "%"}, {"measurement": "% Enzyme Activity (relative to DMSO controls)", "setting": "[7]; 500 nM", "result": 91.55, "unit": "%"}, {"measurement": "remaining activity at 0.5 µM", "setting": "[7]; 500 nM", "result": 92.6, "unit": "%"}, {"measurement": "% Enzyme Activity (relative to DMSO controls)", "setting": "[8]; 500 nM", "result": 101.19, "unit": "%"}, {"measurement": "remaining activity at 0.5 µM", "setting": "[8]; 500 nM", "result": 103, "unit": "%"}, {"measurement": "% Enzyme Activity (relative to DMSO controls)", "setting": "[9]; 500 nM", "result": 94.59, "unit": "%"}, {"measurement": "remaining activity at 0.5 µM", "setting": "[9]; 500 nM", "result": 97.9, "unit": "%"}]}
